Here are results for 8 compounds from patent US12673054B2, “Substituted nucleoside analogs as PRMT5 inhibitors” (Lupin Limited, priority 2019, dated 2026).

Usually IC50 stands for the concentration that gives 50% inhibition.

Where two headings read alike, the source gives them in different places. Bounds are passed on as bounds.

Assay [1] deals with SDMA. Nature of the assay: SDMA inhibition assay. Format: cell-based. As to conditions: Homo sapiens, Z-138 cells, 48 h. How it is done:
Z-138 cells (ATCC, CRL-3001™) were seeded at a density of 1 million cells/well in transparent, flat bottomed tissue culture grade 48-well plates. Cells were treated with various concentration of test compounds for a period of 48 h. Cell lysate was prepared using 1×CST Lysis buffer (Cell Signaling Technology, USA) and 500 ng/well/50 μL of lysate in pH 9.6 carbonate buffer was coated on 96-well Maxisorb plate and incubated overnight at 4° C. The plate was washed twice in 1×PBS containing 0.05% Tween 20 and blocked in 1% BSA for 1 h at ambient temperature. Further, the plate was incubated first with primary antibody (anti-SDMA antibody; CST #13222s) at ambient temperature for 2 h and then with HRP-conjugated secondary antibody at ambient temperature for 1 h with 2 intermittent washing steps in between.
For luminescence based detection, HRP substrates (substrate A+ substrate B in a 1:1 proportion) were added followed by luminescence reading after 30 min in Synergy™ 2 reader (Biotek, USA).
For absorbance based detection, TMB substrate was added followed by addition of STOP solution (2N H2SO4) post colour development and absorbance (excitation 450 nm and emission 540 nm) was measured in Synergy™ 2 reader (Biotek, USA).
% inhibition of SDMA was calculated relative to the vehicle control samples containing media with 0.1% DMSO alone as per the formula below. (Avg. of Untreated Control−Avg. of Test)×100 • Avg. of Untreated control
(§1) The IC50 values of individual compounds were calculated with Non Linear Regression Analysis using Graph Pad Prism (Graph Pad software, Inc, USA).

Assay [2] deals with MIA PaCa-2 cells. Nature of the assay: Anti-Cancer Assay (MIA PaCa-2). The assay is classed as cell-based. As to conditions: Homo sapiens, 240 h, 10 days, read-out: IC50 (inhibition of cell viability), activity range. How it is done:
(§2) Z-138 cells were seeded at a density of 2000-3000 cells per well in culture media (IMDM+10% FBS). PANC-1 (ATCC, CRL-1469™) and MIA PaCa-2 (ATCC, CRL-1420™) cells were seeded at a density of 200-300 cells per well in culture media (DMEM+10% FBS). Cells were seeded in opaque, flat bottomed tissue culture grade 96-well plates and Z-138 cells (suspension) were seeded and treated on the same day with various concentrations of test compounds. PANC-1 and MIA PaCa-2 cells, being adherent, were kept for overnight settlement at standard cell culture conditions (37° C., 5% CO2). On the following day, cells were treated with various concentrations of test compounds. Cells were treated with test compounds for a period of 96 h, 7 days and 10 days, for Z-138 cells, PANC-1 cells and MIA PaCa-2 cells, respectively. Cell viability was assessed using CellTiterGlo™ (Promega, USA) as per manufacturer's instructions. Relative Light Units (RLU) were read in Synergy™ 2 reader (Biotek, USA). The assay measures cellular ATP as an indicator of cell viability. RLU is proportional to the number of viable cells in the respective well.
(§3) % inhibition of cell viability was calculated relative to the vehicle control samples containing media with 0.1% DMSO alone as per the formula below. (Avg. of Untreated Control−Avg. of Test)×100 • Avg. of Untreated control
as §1

Assay [3] deals with PRMT5:MEP50 (Homo sapiens, UniProt O14744). As to the kind of experiment: Biochemical assay, HTRF detection, inhibitory effect on PRMT5. As to conditions: biotinylated H4R3 substrate, 1 μM SAM; protocol 1 or 2 not given; read-out: IC50 (PRMT5 inhibition), activity range. How it is done: (§4) Inhibitory effect of compounds on PRMT5 was assessed using HTRF detection technology in biochemical assay. Biotinylated H4R3 (residues 1-21) was used as a substrate. Compounds were pre-incubated with 15-25 ng PRMT5:MEP50 per well of a 384-well plate for 30 min at room temperature in the assay buffer containing 20 mM Bicine, pH 7.6, 25 mM NaCl, 2 mM DTT, 0.01% Chicken albumin and 0.01% Tween-20. Reaction was initiated by adding 1 μM of SAM and 50 nM biotinylated H4R3. Total assay volume was 15 μL. Reaction was continued for 120 min at room temperature. Then detection solution containing Streptavidin-Eu cryptate, anti-rabbit IgG-XL-665, Histone H4R3 Dimethyl Symmetric (H4R3me2s) Polyclonal Antibody, all prepared in HTRF detection buffer was added and further incubated for 30 min at room temperature. HTRF signal was recorded in PHERAStar microplate reader. Ratio of signal obtained at 665 nm and 620 nm was used to compute the percent inhibition of compound as follows % Inhibition=100−((Test Ratio−Negative control Ratio)/(Positive control Ratio−Negative control Ratio)*100) where Positive control=PRMT5+SAM+H4R3 Negative control=PRMT5+H4R3
Sequence of PRMT5:MEP50 (O14744 whole entry, the tested form may be a part): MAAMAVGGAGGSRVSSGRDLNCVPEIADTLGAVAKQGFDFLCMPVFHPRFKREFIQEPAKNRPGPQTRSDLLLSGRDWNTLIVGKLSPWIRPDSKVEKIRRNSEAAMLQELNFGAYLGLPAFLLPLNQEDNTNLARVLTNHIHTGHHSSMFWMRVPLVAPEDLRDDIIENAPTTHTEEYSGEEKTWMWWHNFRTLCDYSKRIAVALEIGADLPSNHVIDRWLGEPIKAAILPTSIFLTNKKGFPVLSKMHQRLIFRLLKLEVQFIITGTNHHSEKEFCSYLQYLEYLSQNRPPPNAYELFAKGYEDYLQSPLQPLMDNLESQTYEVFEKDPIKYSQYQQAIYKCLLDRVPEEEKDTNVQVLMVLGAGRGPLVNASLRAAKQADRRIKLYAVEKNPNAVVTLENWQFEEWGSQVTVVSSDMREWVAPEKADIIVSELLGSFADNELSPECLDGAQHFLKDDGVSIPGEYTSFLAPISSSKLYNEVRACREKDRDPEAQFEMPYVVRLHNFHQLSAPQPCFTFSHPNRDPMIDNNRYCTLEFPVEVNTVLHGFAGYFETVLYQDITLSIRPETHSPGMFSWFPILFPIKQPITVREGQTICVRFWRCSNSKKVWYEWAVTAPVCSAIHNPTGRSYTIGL
Sequence of PRMT5:MEP50 (Q9BQA1 whole entry partner, the tested form may be a part): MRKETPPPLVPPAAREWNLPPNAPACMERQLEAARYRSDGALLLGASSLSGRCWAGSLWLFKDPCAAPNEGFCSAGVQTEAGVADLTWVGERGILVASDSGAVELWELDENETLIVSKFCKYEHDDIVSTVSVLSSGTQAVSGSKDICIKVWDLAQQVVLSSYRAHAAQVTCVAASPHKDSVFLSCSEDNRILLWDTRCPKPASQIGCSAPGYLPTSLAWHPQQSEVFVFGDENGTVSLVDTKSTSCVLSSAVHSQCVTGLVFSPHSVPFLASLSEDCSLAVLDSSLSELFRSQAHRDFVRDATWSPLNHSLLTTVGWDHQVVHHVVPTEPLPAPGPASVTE
as §4, with “2.5” for “15-25”, “4 h” for “120 min”
In general terms: TR-FRET usually uses a lanthanide donor and a delayed reading to cut background.

Assay [4] relates to Z-138 cells. Nature of the assay: Anticancer activity assay (cell viability, CellTiterGlo). Format: cell-based. As to conditions: Homo sapiens, cell line not given, read-out: IC50 (inhibition of cell viability), activity range. How it is done: as §2, §3, §1
The subject of assay [5] is MIA PaCa-2 xenograft. As to the kind of experiment: Subchronic MIA PaCa-2 xenograft model, tumor growth inhibition. Particulars: 2 mg/kg dose, female athymic nude mice. Format: in vivo, Mus musculus. As for the experimental part: Tumor size was measured with Digimatic Vernier caliper (Mitutoyo, Japan) when the tumors became palpable. Tumor volume (T. V.) is calculated by using the formula: Tumor volume (mm3)=(L×W2)/2
Where, L: Length of tumor, W: Width of tumor in millimeter Percent tumor growth inhibition (% TGI) is calculated using the formula: % TGI=[1−(Tf−Ti)/(Cf−Ci)]×100
Where, Tf and Ti, are the final and initial tumor volumes (test compound), and Cf and Ci are the final and initial mean tumor volumes (vehicle group), respectively.
Tumor fragment xenograft for pancreatic cancer cell line MIA PaCa-2 was established by implantation of tumor fragments 30-45 mm^3 subcutaneously into the right flank of female athymic nude FOXn1/J/Mus musculus mice with an age between 10-11 weeks purchased from the Jackson Laboratory, USA. All animal study proposals were reviewed and approved by the Institutional Animal Ethics Committee (IAEC) prior to initiation of experimentation.

The mark [6] stands for this setting: range given with mixed units (pM to nM).
Setting [7] is: read-out: IC50 (SDMA inhibition), activity range.

For `Cc1nc(N)c2ccn([C@@H]3C=C(CCc4cc(F)c5cc(Cl)c(N)nc5c4)[C@@H](O)[C@H]3O)c2n1` [Example 7, (1S,2R,5R)-5-(4-Amino-2-methyl-7H-pyrrolo[2,3-d]pyrimidin-7-yl)-3-(2-(2-amino-3-chloro-5-fluoroquinolin-7-yl)ethyl)cyclopent-3-ene-1,2-diol], the IC50 in assay [1] (setting [6]) was 100 to 1000 pM; in assay [2], 1 to 400 pM; in assay [3] it was 400 to 750 pM.
On to `Cc1nc(N)nc2c1ccn2[C@@H]1C=C(COc2cc(F)c3cc(Cl)c(N)nc3c2)[C@@H](O)[C@H]1O` [Example 2, (1S,2R,5R)-3-(((2-Amino-3-chloro-5-fluoroquinolin-7-yl)oxy)methyl)-5-(2-amino-4-methyl-7H-pyrrolo[2,3-d]pyrimidin-7-yl)cyclopent-3-ene-1,2-diol], for which the 50% inhibitory concentration (IC50) in assay [1] (setting [7]) lay in the range of 1100 to 50000 pM; in assay [2] (setting [6]), 401 to 30000 pM; in assay [3], 400 to 750 pM.
Regarding `Cc1nc(N)c2ccn([C@@H]3C=C(COc4cc(C(F)F)cc5c4CNCC5)[C@@H](O)[C@H]3O)c2n1` [Example 5, (1S,2R,5R)-5-(4-Amino-2-methyl-7H-pyrrolo[2,3-d]pyrimidin-7-yl)-3-(((6-(difluoromethyl)-1,2,3,4-tetrahydroisoquinolin-8-yl)oxy)methyl)cyclopent-3-ene-1,2-diol], the results for the IC50 in assay [4] and in assay [3] were > 1000 pM and > 750 pM, respectively.
As to `Cc1nc(N)nc2c1ccn2[C@@H]1C=C(CCc2cc(F)c3cc(Cl)c(N)nc3c2)[C@@H](O)[C@H]1O` [Example 1, (1S,2R,5R)-3-(2-(2-Amino-3-chloro-5-fluoroquinolin-7-yl)ethyl)-5-(2-amino-4-methyl-7H-pyrrolo[2,3-d]pyrimidin-7-yl)cyclopent-3-ene-1,2-diol], the IC50 in assay [1] (setting [6]) lay within 100 to 1000 pM; in assay [2] it was 1 to 400 pM; in assay [3] it was 400 to 750 pM. In assay [5], the “% of tumor growth inhibition” value worked out at 57%.
Take `Cc1nc(N)c2ccn([C@@H]3C=C(COc4cc(F)c5cc(Cl)c(N)nc5c4)[C@@H](O)[C@H]3O)c2n1` [Example 3, (1S,2R,5R)-5-(4-Amino-2-methyl-7H-pyrrolo[2,3-d]pyrimidin-7-yl)-3-(((2-amino-3-chloro-5-fluoroquinolin-7-yl)oxy)methyl)cyclopent-3-ene-1,2-diol]: the IC50 in assay [1] (setting [7]) was 1100 to 50000 pM; in assay [2] (setting [6]), 401 to 30000 pM; in assay [3] it was 400 to 750 pM.
Consider `Cc1nc(N)c2ccn([C@@H]3C=C(CCc4cc(C(F)F)cc5c4CNCC5)[C@@H](O)[C@H]3O)c2n1` [Example 6, (1S,2R,5R)-5-(4-Amino-2-methyl-7H-pyrrolo[2,3-d]pyrimidin-7-yl)-3-(2-(6-(difluoromethyl)-1,2,3,4-tetrahydroisoquinolin-8-yl)ethyl)cyclopent-3-ene-1,2-diol], for which the concentration for half-maximal inhibition (IC50) is > 1000 pM in assay [4] and > 750 pM in assay [3].
`Cc1nc(N)nc2c1cnn2[C@@H]1C=C(CCc2cc(F)c3cc(Cl)c(N)nc3c2)[C@@H](O)[C@H]1O` [Example 4, (1S,2R,5R)-3-(2-(2-Amino-3-chloro-5-fluoroquinolin-7-yl)ethyl)-5-(6-amino-4-methyl-1H-pyrazolo[3,4-d]pyrimidin-1-yl)cyclopent-3-ene-1,2-diol]: the IC50 in assay [1] (setting [6]) was 100 to 1000 pM; in assay [2] (setting [6]) it was 401 to 30000 pM; in assay [3], 400 to 750 pM.
On to `Cc1nc(N)nc2c1ccn2[C@@H]1C=C(CCc2cc(C(F)F)c(F)c3c2CNCC3)[C@@H](O)[C@H]1O` [Example 8, (1S,2R,5R)-5-(2-Amino-4-methyl-7H-pyrrolo[2,3-d]pyrimidin-7-yl)-3-(2-(6-(difluoromethyl)-5-fluoro-1,2,3,4-tetrahydroisoquinolin-8-yl)ethyl)cyclopent-3-ene-1,2-diol], for which the IC50 is > 1000 pM in assay [4], 1100 to 50000 pM in assay [1] (setting [7]) and 400 to 750 pM in assay [3].
